Test results published in patent US12233047B2, “Pharmaceutical combination and use thereof” (ASCENTAGE PHARMA (SUZHOU) CO., LTD., priority 2019, dated 2025).
Positions count from the first letter of the chain named.

Key:
FLT3 (D835Y) = molecular target: T1, FLT3 (D835Y) (Homo sapiens, UniProt P36888, D835Y); assay: KINOMEscan kinase binding assay, FLT3 (D835Y)
T1 construct: host or cells: T7 phage in E. coli (BL21-derived) or HEK-293
T1 sequence (P36888 27-993 D835Y): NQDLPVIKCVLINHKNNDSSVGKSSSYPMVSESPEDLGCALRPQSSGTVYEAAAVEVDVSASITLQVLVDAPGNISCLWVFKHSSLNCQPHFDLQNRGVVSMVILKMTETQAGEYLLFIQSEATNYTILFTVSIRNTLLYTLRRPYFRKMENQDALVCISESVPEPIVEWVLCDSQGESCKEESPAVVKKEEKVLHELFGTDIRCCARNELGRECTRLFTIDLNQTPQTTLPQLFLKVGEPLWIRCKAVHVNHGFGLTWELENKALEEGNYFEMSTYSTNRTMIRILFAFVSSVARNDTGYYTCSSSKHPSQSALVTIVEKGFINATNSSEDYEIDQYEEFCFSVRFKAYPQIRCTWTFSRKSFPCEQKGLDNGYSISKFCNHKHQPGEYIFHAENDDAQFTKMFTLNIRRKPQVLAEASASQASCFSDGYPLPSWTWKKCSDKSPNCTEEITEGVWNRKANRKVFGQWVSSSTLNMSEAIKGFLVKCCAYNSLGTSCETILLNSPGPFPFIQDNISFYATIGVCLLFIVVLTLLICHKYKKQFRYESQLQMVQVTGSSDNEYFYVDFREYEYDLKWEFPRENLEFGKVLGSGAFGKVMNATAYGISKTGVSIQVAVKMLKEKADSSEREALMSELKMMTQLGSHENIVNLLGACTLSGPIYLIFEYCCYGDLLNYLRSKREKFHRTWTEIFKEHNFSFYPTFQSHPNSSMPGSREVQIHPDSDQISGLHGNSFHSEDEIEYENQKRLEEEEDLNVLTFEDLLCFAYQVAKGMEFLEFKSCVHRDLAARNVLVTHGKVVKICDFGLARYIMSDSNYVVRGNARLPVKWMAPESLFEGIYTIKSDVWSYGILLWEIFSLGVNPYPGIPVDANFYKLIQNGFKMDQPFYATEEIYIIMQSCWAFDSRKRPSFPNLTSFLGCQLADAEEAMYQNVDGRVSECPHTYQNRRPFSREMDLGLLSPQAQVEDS
Description: (§1) The kinase assay was conducted using KINOMEscan™.
(§2) Kinase-tagged T7 phage strains were grown in parallel in 24-well blocks in an E. coli host derived from the BL21 strain. E. coli were grown to log-phase and infected with T7 phage from a frozen stock (multiplicity of infection=0.4) and incubated with shaking at 32° C. until lysis (90-150 minutes). The lysates were centrifuged (6,000×g) and filtered (0.2 μm) to remove cell debris. The remaining kinases were produced in HEK-293 cells and subsequently tagged with DNA for qPCR detection. Streptavidin-coated magnetic beads were treated with biotinylated small molecule ligands for 30 minutes at room temperature to generate affinity resins for kinase assays. The liganded beads were blocked with excess biotin and washed with blocking buffer (SeaBlock (Pierce), 1% BSA, 0.05% Tween 20, 1 mM DTT) to remove unbound ligand and to reduce non-specific phage binding. Binding reactions were assembled by combining kinases, liganded affinity beads, and test compound (Compound 23) in 1× binding buffer (20% SeaBlock, 0.17×PBS, 0.05% Tween 20, 6 mM DTT). Test compound were prepared as 40× stocks in 100% DMSO and directly diluted into the assay. All reactions were performed in polypropylene 384-well plates in a final volume of 0.04 ml. […] The kinase concentration in the eluates was measured by qPCR. […]

FLT3 (R834Q) = molecular target: T2, FLT3 (R834Q) (Homo sapiens, UniProt P36888, R834Q); assay: KINOMEscan kinase binding assay, FLT3 (R834Q)
T2 construct: host or cells: T7 phage in E. coli (BL21-derived) or HEK-293
T2 sequence (P36888 27-993 R834Q): T1 sequence (P36888 27-993 D835Y) with R808Q, Y809D
Description: as §1, §2

Cc1ccc(C(=O)Nc2ccc(CN3CCN(C)CC3)c(C(F)(F)F)c2)cc1C#Cc1cnc2[nH]ncc2c1 [Compound 23, 3-(2-(1H-pyrazolo[3,4-b]pyridin-5-yl)ethynyl)-4-methyl-N-(4-((4-methylpiperazin-1-yl)methyl)-3-(trifluoromethyl)phenyl)benzamide]
% Ctrl@10 nM (FLT3 (D835Y); 10 nM): 42 % Ctrl | % Ctrl@100 nM (FLT3 (D835Y); 100 nM): 17 % Ctrl | % Ctrl@10 nM (FLT3 (R834Q); 10 nM): 23 % Ctrl | % Ctrl@100 nM (FLT3 (R834Q); 100 nM): 15 % Ctrl
